Legend:
physchem = details: octan-1-ol/water, pH 7.4, LogD7.4
in vitro = details: human, plasma, PPB

## C[C@H](Nc1nc(Nc2ncc(C#N)s2)cc(N2CCOCC2)n1)c1ncc(F)cn1
physchem
  logD: 2.26
In vitro
  fraction unbound at 5 h: 0.117

## Cc1cnc(Nc2cncc(N[C@@H](C)c3ncc(F)cn3)n2)s1
physchem
  logD: 1.91
In vitro
  fraction unbound at 5 h: 0.173

## Cc1cnc(Nc2cc(N3CCOCC3)nc(N[C@@H](C)c3ncc(F)cn3)n2)s1
physchem
  logD: 2.68
In vitro
  fraction unbound at 5 h: 0.0736

## NC(=O)c1cnc(N[C@H]2CCCNC2)c2cc(-c3ccc(Cl)cc3)sc12
physchem
  logD: 2.78
In vitro
  fraction unbound at 5 h: 0.0081

## NC(=O)c1cnc(N[C@H]2CCCNC2)c2cc(-c3ccc(Cl)c(F)c3)sc12
physchem
  logD: 2.76
In vitro
  fraction unbound at 5 h: 0.0106

## NC(=O)c1cnc(N[C@H]2CCCNC2)c2cc(-c3ccc(F)cc3)sc12
physchem
  logD: 2.01
In vitro
  fraction unbound at 5 h: 0.0262

## Nc1nc2nc(-c3cccs3)cc(C(F)(F)F)n2n1
physchem
  logD: 2.01
In vitro
  fraction unbound at 5 h: 0.201

## N#Cc1c(N)nc2c(c1N)CC(COc1ccccc1)O2 (stereo not given)
physchem
  logD: 2.08
In vitro
  fraction unbound at 5 h: 0.11

## CNC(=O)c1[nH]cnc1C(=O)Nc1ccc(OC)cc1
physchem
  logD: 2.2
In vitro
  fraction unbound at 5 h: 0.134

## O=C(CSc1nccn(-c2ccc(F)c(F)c2)c1=O)NC1CCCC1
physchem
  logD: 2
In vitro
  fraction unbound at 5 h: 0.28

## Cc1ccc(-c2csc3ncnc(O)c23)cc1
physchem
  logD: 2.59
In vitro
  fraction unbound at 5 h: 0.0391

## Nc1ccc(OCCc2ccccc2)cc1
physchem
  logD: 2.71
In vitro
  fraction unbound at 5 h: 0.0343

## CC(C)CCOc1ccc(N)cc1
physchem
  logD: 2.67
In vitro
  fraction unbound at 5 h: 0.0676

## C[C@H](Nc1ncc(F)c(Nc2cc(C3CC3)[nH]n2)n1)c1ncc(F)cn1
physchem
  logD: 2.47
In vitro
  fraction unbound at 5 h: 0.224

## COc1cc(Nc2nc(N[C@@H](C)c3ncc(F)cn3)ncc2Cl)n[nH]1
physchem
  logD: 2.53
In vitro
  fraction unbound at 5 h: 0.121

## COc1cc(Nc2nc(N[C@@H](C)c3ncc(F)cn3)ncc2Br)n[nH]1
physchem
  logD: 2.6
In vitro
  fraction unbound at 5 h: 0.124

## Cc1cc(Nc2nc(N[C@@H](C)c3ncc(F)cn3)ncc2Br)n[nH]1
physchem
  logD: 2.39
In vitro
  fraction unbound at 5 h: 0.0854

## C[C@H](Nc1ncc(Cl)c(Nc2cc(N(C)C)[nH]n2)n1)c1ncc(F)cn1
physchem
  logD: 2.33
In vitro
  fraction unbound at 5 h: 0.105

## C[C@H](Nc1ncc(F)c(Nc2cc(N(C)C)[nH]n2)n1)c1ncc(F)cn1
physchem
  logD: 1.98
In vitro
  fraction unbound at 5 h: 0.22

## Cc1cc(Nc2cc(N3CCOCC3)nc(N[C@@H](C)c3ncc(F)cn3)n2)[nH]n1
physchem
  logD: 1.91
In vitro
  fraction unbound at 5 h: 0.54

## Cc1cc(Nc2nc(N[C@@H](C)c3ncc(F)cn3)nc(N3CCOCC3)c2Cl)n[nH]1
physchem
  logD: 2.61
In vitro
  fraction unbound at 5 h: 0.228

## COc1cc(Nc2cc(N3CCOCC3)nc(N[C@@H](C)c3ncc(F)cn3)n2)n[nH]1
physchem
  logD: 2.18
In vitro
  fraction unbound at 5 h: 0.276

## COc1cc(Nc2nc(N[C@@H](C)c3ncc(F)cn3)nc(N3CCOCC3)c2F)[nH]n1
physchem
  logD: 2.64
In vitro
  fraction unbound at 5 h: 0.253

## Cc1nc(C(=O)[C@H](C)Oc2ccc(SCCCCCc3ccccc3)cc2)sc1CCCC(=O)O
physchem
  logD: 2.03
In vitro
  fraction unbound at 5 h: 0.007

## CC(C)[C@H](NC(=O)C[C@H](NC(=O)/C=C/c1ccccc1)c1ccccc1)C(=O)[C@@H]1C(=O)NC(=O)[C@H]1C
physchem
  logD: 1.91
In vitro
  fraction unbound at 5 h: 0.016

## O=C(Cc1ccc(Oc2ccccc2)cc1)NO
physchem
  logD: 2.03
In vitro
  fraction unbound at 5 h: 0.02

## CN[C@@H](C)C(=O)N[C@H](C(=O)N[C@H]1CCCCN(Cc2ccccc2)C1)C1CCCCC1
physchem
  logD: 2.12
In vitro
  fraction unbound at 5 h: 0.197

## CN[C@@H](C)C(=O)N[C@H](C(=O)N(C)[C@H]1CCCN(CCc2ccccc2)C1)C1CCCCC1
physchem
  logD: 2.34
In vitro
  fraction unbound at 5 h: 0.266

## CN[C@@H](C)C(=O)N[C@H](C(=O)N[C@H]1CCCN(CCc2ccccc2F)C1)C1CCCCC1
physchem
  logD: 2.51
In vitro
  fraction unbound at 5 h: 0.262

## CN[C@@H](C)C(=O)N[C@H](C(=O)N[C@H]1CCCN(CCc2ccc(F)cc2)C1)C1CCCCC1
physchem
  logD: 2.39
In vitro
  fraction unbound at 5 h: 0.266

## NS(=O)(=O)c1ccc(CCNc2ccc3nnc(-c4ccccc4)n3n2)cc1
physchem
  logD: 2.19
In vitro
  fraction unbound at 5 h: 0.0321

## CNc1c(Br)cnc2nc(-c3ccc(OCCN4CCCCC4)cc3)[nH]c12
physchem
  logD: 2.56
In vitro
  fraction unbound at 5 h: 0.112

## CNc1c(Br)cnc2nc(-c3ccnc(N)c3)[nH]c12
physchem
  logD: 2.83
In vitro
  fraction unbound at 5 h: 0.0268

## CNc1c(C(N)=O)cnc2[nH]c(-c3ccc(OCCN4CCOCC4)cc3)nc12
physchem
  logD: 2.14
In vitro
  fraction unbound at 5 h: 0.212

## CNc1c(Cl)cnc2nc(-c3ccc(OCCN4CCOCC4)cc3)[nH]c12
physchem
  logD: 2.63
In vitro
  fraction unbound at 5 h: 0.0191

## COc1ccc(-c2nc3c(NCCCNC(=O)C4(CN)CC4)c(Br)cnc3[nH]2)cc1
physchem
  logD: 1.9
In vitro
  fraction unbound at 5 h: 0.0293

## O=c1[nH]c([C@@H]2CCCN2)nc2c1oc1ccc(Br)cc12
physchem
  logD: 2.19
In vitro
  fraction unbound at 5 h: 0.051

## O=c1[nH]c([C@@H]2CCCN2)nc2c1oc1ccc(Cl)cc12
physchem
  logD: 2.01
In vitro
  fraction unbound at 5 h: 0.072

## CCOc1cccc(/C=C2\SC(=O)NC2=O)c1N1CCC[C@@H](N)C1
physchem
  logD: 1.86
In vitro
  fraction unbound at 5 h: 0.0521

## N#Cc1cnn2c(N)cc(-c3ccccc3)nc12
physchem
  logD: 2.48
In vitro
  fraction unbound at 5 h: 0.0499

## COc1ccc(-c2cc(N)n3ncc(C#N)c3n2)cc1
physchem
  logD: 2.42
In vitro
  fraction unbound at 5 h: 0.0676

## N#Cc1cnn2c(N)cc(-c3ccc(F)cc3)nc12
physchem
  logD: 2.23
In vitro
  fraction unbound at 5 h: 0.0544

## CC(=O)Nc1cnc2ccn(-c3cc(NC4CC4)n4ncc(C#N)c4n3)c2c1
physchem
  logD: 2.69
In vitro
  fraction unbound at 5 h: 0.0251

## CC(=O)Nc1ccc2ccn(-c3cc(NCCCCO)n4ncc(C#N)c4n3)c2c1
physchem
  logD: 2.58
In vitro
  fraction unbound at 5 h: 0.0409

## CC(=O)Nc1ccc2ccn(-c3cc(NCCN4CCCC4)n4ncc(C#N)c4n3)c2c1
physchem
  logD: 2.24
In vitro
  fraction unbound at 5 h: 0.0556

## CC(=O)Nc1ccc2ccn(-c3cc(NCCCN4CCCC4)n4ncc(C#N)c4n3)c2c1
physchem
  logD: 1.87
In vitro
  fraction unbound at 5 h: 0.0676

## CS(=O)(=O)Cc1ccc2ccn(-c3cc(NC4CC4)n4ncc(C#N)c4n3)c2c1
physchem
  logD: 2.49
In vitro
  fraction unbound at 5 h: 0.0179

## C[C@H](Nc1ccc2ncn(-c3cc(C4CC4)[nH]n3)c2n1)c1ncc(F)cn1
physchem
  logD: 2.74
In vitro
  fraction unbound at 5 h: 0.212

## CC(C)Oc1cc(-n2cnc3cnc(N[C@@H](C)c4ncc(F)cn4)nc32)n[nH]1
physchem
  logD: 2.41
In vitro
  fraction unbound at 5 h: 0.309

## Cc1cn([C@H]2CCCN(S(=O)(=O)c3ccc(C(N)=O)c(Oc4cccc(Cl)c4)c3)C2)c(=O)[nH]c1=O
physchem
  logD: 1.96
In vitro
  fraction unbound at 5 h: 0.0358

## CN1CCCC1CCNC(=O)c1ccc(Nc2ncc3cc(-c4ccncc4)ccc3n2)cc1 (stereo not given)
physchem
  logD: 2.01
In vitro
  fraction unbound at 5 h: 0.0081

## C[C@@H](NC1=CC(=O)CNC1)c1ccc(Nc2ncc3cc(-c4ccncc4)ccc3n2)cc1
physchem
  logD: 2.49
In vitro
  fraction unbound at 5 h: 0.0358

## CC(=O)Nc1cccc(Nc2nc(NC3CC3)n3ncc(C#N)c3n2)c1
physchem
  logD: 2.1
In vitro
  fraction unbound at 5 h: 0.107

## Cc1ncc(-c2nc(Nc3ccc(C(=O)N4CC[C@H](N(C)C)C4)cc3)ncc2F)n1C(C)C
physchem
  logD: 2.16
In vitro
  fraction unbound at 5 h: 0.258

## CCNC(=O)Nc1nc2cc(-c3cccnc3)ccc2[nH]1
physchem
  logD: 2.34
In vitro
  fraction unbound at 5 h: 0.0179

## Cc1ccc(NC(=O)c2ccc(Cl)c(C(F)(F)F)c2)cc1C(=O)Nc1cccnc1
physchem
  logD: 2.83
In vitro
  fraction unbound at 5 h: 0.0119

## COc1cc2ncc(C(N)=O)c(Nc3ccc(F)cc3F)c2cc1N1CCN(C)CC1
physchem
  logD: 2.18
In vitro
  fraction unbound at 5 h: 0.253

## COCCOc1cc2ncc(C(N)=O)c(Nc3ccc(C)cc3F)c2cc1N1CCN(C)CC1
physchem
  logD: 2.24
In vitro
  fraction unbound at 5 h: 0.151

## CN1CCN(c2ccc3ncc(C(N)=O)c(Nc4ccc(F)cc4F)c3c2)CC1
physchem
  logD: 2.3
In vitro
  fraction unbound at 5 h: 0.258

## CN1CCN(c2cc3c(Nc4ccc(F)cc4F)c(C(N)=O)cnc3cc2F)CC1
physchem
  logD: 2.63
In vitro
  fraction unbound at 5 h: 0.244

## CCOc1cc2ncc(C(N)=O)c(Nc3ccc(F)cc3F)c2cc1N1CCC(O)CC1
physchem
  logD: 2.74
In vitro
  fraction unbound at 5 h: 0.089

## O=C(c1cccc(Cc2n[nH]c(=O)c3ccccc23)c1)N1CCN(c2ncccn2)CC1
physchem
  logD: 2.13
In vitro
  fraction unbound at 5 h: 0.0544

## O=C(O)CNCCNc1ccc(Cl)c(C(=O)NCC23CC4CC(CC(C4)C2)C3)c1
physchem
  logD: 1.94
In vitro
  fraction unbound at 5 h: 0.072

## Cc1cc(Nc2nc(O[C@H](C)c3ccc(F)cn3)c(C#N)nc2C)[nH]n1
physchem
  logD: 2.72
In vitro
  fraction unbound at 5 h: 0.0219

## COc1cnc(-c2ccccn2)nc1NC(C)C
physchem
  logD: 2.01
In vitro
  fraction unbound at 5 h: 0.224

Source: ChEMBL document CHEMBL3301361, “Experimental in vitro DMPK and physicochemical data on a set of publicly disclosed compounds”
